From US10548933B2, “Method for preparing broccoli protein peptide mixture” (ZHEJIANG HISUN PHARMACEUTICAL CO., LTD., priority 2015, dated 2020)

Test: DPPH free radical scavenging rate method (antioxidant capacity)
Assay type: biochemical
Settings: 30 min, dark, 517 nm, average of three
Experimental: The antioxidant capacity was determined with the neutral protease and trypsin-digested peptide prepared in example 2, as well as the alkaline protease-digested peptide, the trypsin-digested peptide, the neutral protease-digested peptide, the papain-digested peptide and the pepsin-digested peptide prepared in example 3 used as samples, with soybean protein peptide and reduced glutathione used as controls (DPPH free radical scavenging rate method).
(1) DPPH (1,1-diphenyl-2-picrylhydrazyl) (25 mg) was weighed accurately, dissolved in absolute ethanol and the volume reached to 250 mL in a brown volumetric flask, DPPH solution with the concentration of 0.1 mg/mL was obtained and was kept in dark place to be supplied as standby.
(2) 1.0 mL sample solutions with different concentrations (100 mg/mL, 10 mg/mL, 1 mg/mL, 0.1 mg/mL) were taken, the solutions were placed in a 10 mL colorimetric tube respectively, 4.0 ml DPPH solution was added, the mixture was reacted at room temperature in a dark place for 30 minutes.
(3) The absorbance value was measured at 517 nm with the absolute ethanol as blank. The DPPH free radical scavenging rate was calculated according to the following formula. DPPH free radical scavenging rate (%)=[…] • In the formula. A0—the absorbance value of 1.0 mL distilled water+3.0 mL solution • As—the absorbance value of 1.0 mL sample solution+3.0 mL DPPH solution • Ac—the absorbance value of 1.0 mL sample solution+3.0 mL absolute ethanol.
The experiment was repeated for three times, the average value of the scavenging rate was obtained (if the solution was turbid, the measurement was taken after centrifugation).

SMILES: N[C@@H](CCC(=O)N[C@@H](CS)C(=O)NCC(=O)O)C(=O)O [Reduced glutathione (GSH), Reduced glutathione]
- DPPH free radical scavenging rate (sample concentration 0.1 mg/ml): 30.8%
- DPPH free radical scavenging rate (sample concentration 1 mg/ml): 72.1%
- DPPH free radical scavenging rate (sample concentration 10 mg/ml): 90.9%
- DPPH free radical scavenging rate (sample concentration 100 mg/ml): 95.9%
